Laboratory results taken from article PMC9501899 (Journal of the American Chemical Society, 2022).

Tests used:
[1] = molecular target: T1, R1441C LRRK2 (Mus musculus, UniProt Q5S006, R1441C); test: LRRK2 degradation in R1441C LRRK2 MEFs; type: cell-based; conditions: 4 h
T1 construct: endogenous in cells; host or cells: R1441C LRRK2 MEFs

[2] = molecular target: T2, LRRK2 (Mus musculus, UniProt Q5S006); test: LRRK2 degradation in bone marrow-derived macrophages (BMDMs); type: cell-based; conditions: 4 h
T2 construct: endogenous in cells; host or cells: mouse bone marrow-derived macrophages
From the text: The relative LRRK2 protein and pRab10 levels were obtained by quantifying the ratios of total LRRK2/GAPDH or Rab10-pThr73/total Rab10, respectively, and the ratios were normalized to the DMSO-treated samples. The relative LRRK2 and pRab10 protein levels were plotted against the compound concentration and fitted against “nonlinear regression, one site-fit log IC50” in GraphPad to obtain the DC50 and EC50 values. Data points are presented as mean ± standard error of the mean (SEM) from three biological independent replicates. […] The relative LRRK2 protein and pRab10 levels were obtained by quantifying the ratios of total LRRK2/ GAPDH or Rab10-pThr73/total Rab10, respectively, and the ratios were normalized to the DMSO-treated samples. The relative LRRK2 and pRab10 protein levels were plotted against the treatment time and were fitted against “nonlinear regression, one-phase decay” in GraphPad to obtain the half-life (T1/2) values. Data points are presented as mean ± SEM from three biological independent replicates. […] The relative LRRK2 levels were obtained by quantifying the ratios of total LRRK2/tubulin and normalized to the DMSO-treated samples. The relative LRRK2 levels were plotted against the compound concentration and fitted against “nonlinear regression, one site-fit log IC50” in GraphPad to obtain the DC50 values.
Bone marrow isolation and macrophage differentiation were modified from ref ([81]), employing an L929 preconditioned medium as the source of M-CSF for differentiation. Briefly, scissors and forceps were used to dissect femurs and tibiae from adult mice, and muscle tissues were carefully removed from bones. Clean femurs and tibiae were placed in a tissue culture dish containing complete media. The ends of each bone were cut with scissors to expose the bone marrow. […] The cell suspension was counted, and cells were seeded for experimental analysis in a six-well format in tissue culture-treated dishes at a final cell density of one million cells per well of a six-well plate. […]

[3] = system: mito-QC MEFs; test: Mitophagy in mito-QC MEFs; type: cell-based, mouse; conditions: 24 h treatment
From the text: Mitochondrial dysfunction is one of the pathophysiological hallmarks of PD[73] and can be rescued by mitophagy, a quality control mechanism whereby damaged or unnecessary mitochondria are delivered to lysosomes for degradation through membrane trafficking.[8] It has been shown that increasing mitophagy with inducer agents has the potential as a PD therapy.[74] Previous studies have shown that the LRRK2 kinase activity impairs basal mitophagy and that LRRK2 knockout or pharmacological inhibition of LRRK2 with kinase inhibitors was able to rescue the mitophagy level.[8]
Data are represented as mean ± SEM from three to five independent experiments.
Immortalized mito-QC MEFs[8],[93] were maintained in DMEM (Gibco, 11960–044) supplemented with 10% FBS, 2 mM L-glutamine (Gibco, 2503-081), 1% Na-pyruvate (Gibco, 11360-070), 1% nonessential amino acids (Gibco, 11140–035), and 1% antibiotics (penicillin/streptomycin, 100 U/mL penicillin and 100 μg/mL streptomycin; Gibco) at 37 °C under a humidified 5% CO2 atmosphere. […] Quantification of red-only dots was semiautomatized using the mito-QC counter plugin on FIJI, as previously described,[8],[94] using the following parameters: radius for smoothing images = 2, ratio threshold = 1.5, and red channel threshold = mean + 1 SD. […]

[4] = system: Rab10-pThr73; test: Rab10 dephosphorylation in G2019S LRRK2 MEFs by Western blotting; type: cell-based, mouse; conditions: 0.3 µM

T1 sequence (Q5S006 whole entry R1441C): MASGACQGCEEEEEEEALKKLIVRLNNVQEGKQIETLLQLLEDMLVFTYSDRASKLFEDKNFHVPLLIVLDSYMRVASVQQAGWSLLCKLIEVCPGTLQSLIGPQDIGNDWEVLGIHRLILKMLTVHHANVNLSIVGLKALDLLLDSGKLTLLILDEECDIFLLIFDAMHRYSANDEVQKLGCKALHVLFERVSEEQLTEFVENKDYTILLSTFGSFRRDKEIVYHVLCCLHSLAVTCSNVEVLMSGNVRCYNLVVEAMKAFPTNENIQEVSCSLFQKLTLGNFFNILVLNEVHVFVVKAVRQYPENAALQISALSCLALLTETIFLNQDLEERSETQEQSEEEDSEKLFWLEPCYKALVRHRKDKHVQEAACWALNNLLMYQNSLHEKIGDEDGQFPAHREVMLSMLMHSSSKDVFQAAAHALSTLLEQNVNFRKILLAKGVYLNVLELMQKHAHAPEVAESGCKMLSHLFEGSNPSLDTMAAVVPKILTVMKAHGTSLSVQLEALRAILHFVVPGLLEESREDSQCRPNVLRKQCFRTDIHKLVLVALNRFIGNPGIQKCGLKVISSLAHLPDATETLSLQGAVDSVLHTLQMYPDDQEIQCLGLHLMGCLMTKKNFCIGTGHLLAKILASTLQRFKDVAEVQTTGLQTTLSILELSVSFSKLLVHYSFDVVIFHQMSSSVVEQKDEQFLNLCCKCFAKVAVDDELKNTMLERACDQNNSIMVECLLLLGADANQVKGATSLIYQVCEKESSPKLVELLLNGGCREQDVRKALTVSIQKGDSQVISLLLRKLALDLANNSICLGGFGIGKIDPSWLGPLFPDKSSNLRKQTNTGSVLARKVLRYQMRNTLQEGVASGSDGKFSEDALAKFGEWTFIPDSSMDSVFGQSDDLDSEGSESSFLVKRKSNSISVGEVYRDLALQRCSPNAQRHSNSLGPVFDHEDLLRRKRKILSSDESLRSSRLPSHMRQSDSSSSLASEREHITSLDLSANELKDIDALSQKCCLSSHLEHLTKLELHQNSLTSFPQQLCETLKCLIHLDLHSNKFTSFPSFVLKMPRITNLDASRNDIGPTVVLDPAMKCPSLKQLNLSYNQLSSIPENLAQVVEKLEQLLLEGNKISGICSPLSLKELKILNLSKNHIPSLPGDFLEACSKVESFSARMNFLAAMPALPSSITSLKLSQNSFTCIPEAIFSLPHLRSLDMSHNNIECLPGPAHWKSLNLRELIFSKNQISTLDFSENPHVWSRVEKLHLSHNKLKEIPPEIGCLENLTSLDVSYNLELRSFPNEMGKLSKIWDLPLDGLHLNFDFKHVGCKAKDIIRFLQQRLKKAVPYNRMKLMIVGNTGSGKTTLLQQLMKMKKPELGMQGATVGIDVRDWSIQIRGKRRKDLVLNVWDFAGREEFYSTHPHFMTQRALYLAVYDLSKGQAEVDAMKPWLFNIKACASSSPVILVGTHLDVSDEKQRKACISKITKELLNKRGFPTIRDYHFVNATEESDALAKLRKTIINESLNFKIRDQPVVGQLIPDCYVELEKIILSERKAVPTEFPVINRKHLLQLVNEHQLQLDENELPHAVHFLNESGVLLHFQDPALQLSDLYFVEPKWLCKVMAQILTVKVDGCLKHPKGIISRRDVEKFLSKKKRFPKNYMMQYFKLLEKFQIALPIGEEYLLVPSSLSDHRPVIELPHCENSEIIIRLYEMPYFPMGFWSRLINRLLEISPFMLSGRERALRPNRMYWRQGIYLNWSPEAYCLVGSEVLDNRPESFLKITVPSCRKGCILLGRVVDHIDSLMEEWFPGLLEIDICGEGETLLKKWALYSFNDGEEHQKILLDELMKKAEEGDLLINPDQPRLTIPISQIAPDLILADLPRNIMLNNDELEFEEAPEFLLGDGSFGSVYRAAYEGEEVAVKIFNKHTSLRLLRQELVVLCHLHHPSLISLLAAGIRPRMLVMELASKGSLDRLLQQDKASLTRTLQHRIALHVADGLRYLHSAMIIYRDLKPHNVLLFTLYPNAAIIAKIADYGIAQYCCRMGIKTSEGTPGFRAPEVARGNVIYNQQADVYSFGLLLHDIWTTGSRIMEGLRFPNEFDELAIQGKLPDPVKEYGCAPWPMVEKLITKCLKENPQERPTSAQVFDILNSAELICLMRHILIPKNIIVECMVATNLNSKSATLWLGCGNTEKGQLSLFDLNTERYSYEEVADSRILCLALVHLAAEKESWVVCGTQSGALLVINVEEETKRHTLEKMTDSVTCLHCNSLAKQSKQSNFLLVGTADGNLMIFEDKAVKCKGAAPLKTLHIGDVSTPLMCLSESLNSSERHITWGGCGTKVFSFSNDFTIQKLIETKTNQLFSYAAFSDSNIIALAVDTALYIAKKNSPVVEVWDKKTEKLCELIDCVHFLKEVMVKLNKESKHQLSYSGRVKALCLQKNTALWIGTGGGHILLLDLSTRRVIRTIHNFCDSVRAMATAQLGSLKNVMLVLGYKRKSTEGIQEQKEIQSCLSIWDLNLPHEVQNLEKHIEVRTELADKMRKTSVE
T2 sequence (Q5S006 whole entry): as the sequence (Q5S006 whole entry R1441C) above, with C1441R counted along it

Row | SMILES | DC50s (LRRK2) [1] | Dmax ([2]; BMDM) | mitophagy level (in words) [3] | GS-pRab10 percent label at the end of the time curve [4] | Dmax (LRRK2) [1] | DC50s (LRRK2) [2] | Dmax (LRRK2) [2]
1 | CNc1nc(Nc2ccc(C(=O)N3CCN(C[C@H]4CC[C@H](CSC(C)(C)[C@H](NC(=O)C5(F)CC5)C(=O)N5C[C@H](O)CC5C(=O)NCc5ccc(-c6scnc6C)cc5)CC4)CC3)cc2OC)ncc1Cl (stereo partly drawn) [XL01126, (2S,4R)-1-((R)-3-((((1R,4R)-4-((4-(4-((5-Chloro-4-(methylamino)pyrimidin-2-yl)amino)-3-methoxybenzoyl)piperazin-1-yl)methyl)cyclohexyl)methyl)thio)-2-(1-fluorocyclopropane-1-carboxamido)-3-methylbutanoyl)-4-hydroxy-N-(4-(4-methylthiazol-5-yl)benzyl)pyrrolidine-2-carboxamide] | 15 nM (4 h) | 83% | induced the mitophagy level dose-dependently | 92% |  |  | 
2 | CNc1nc(Nc2ccc(C(=O)N3CCN(C[C@H]4CC[C@@H](CSC(C)(C)[C@H](NC(=O)C5(F)CC5)C(=O)N5C[C@H](O)CC5C(=O)NCc5ccc(-c6scnc6C)cc5)CC4)CC3)cc2OC)ncc1Cl (stereo partly shown) [XL01134] |  |  |  | 87% |  |  | 
3 | CNc1nc(Nc2ccc(C(=O)N3CCN(C[C@H]4CC[C@H](CSC(C)(C)[C@H](NC(=O)C5(F)CC5)C(=O)N5C[C@@H](O)C[C@H]5C(=O)NCc5ccc(-c6scnc6C)cc5)CC4)CC3)cc2OC)ncc1Cl [cis-XL01126, (2S,4S)-1-((R)-3-((((1R,4R)-4-((4-(4-((5-Chloro-4-(methylamino)pyrimidin-2-yl)amino)-3-methoxybenzoyl)piperazin-1-yl)methyl)cyclohexyl)methyl)thio)-2-(1-fluorocyclopropane-1-carboxamido)-3-methylbutanoyl)-4-hydroxy-N-(4-(4-methylthiazol-5-yl)benzyl)pyrrolidine-2-carboxamide] | NDO |  | induced the mitophagy level dose-dependently |  | NDO | NDO | NDO
